# Measurements as given in patent US11993590B2, “Pyranone compounds useful to modulate OMA1 protease” (712 North Inc., priority 2016, dated 2024).
# Values joined by “and” are separate entries in the source; they are usually repeats but may differ in a detail not shown here. Equal values may be shown once. “Also recorded” adds a separate entry of the source. Read-outs that look alike come from different tables or passages of the source.
# Assays:
# [1] = test system: OMA1; experiment: OMA1 antagonist test: CCCP-induced OPA1 cleavage in HEK293T cells, OPA1 Western blot; assay type: cell-based, human; details: for proteolytic cleavage of large OPA1 isoforms upon CCCP: 2 hours before 10 μM CCCP for 30 min
# Experimental: HEK293T cells were cultured and maintained in Dulbecco's Modified Eagle's Medium supplemented with 10% fetal bovine serum (FBS) and 2 mM […] in a 95% air-5% CO2 humidified atmosphere at 37° C. To test potential OMA1 antagonists, cells were seeded in 24-well plates and incubated over night to achieve around 90% confluency. For experiments the culture medium was replaced with Minimal Essential Medium and cells were pre-incubated with variable concentrations of the different test-compounds for 2 hours in a 95% air-5% CO2 humidified atmosphere at 37° C. After 2 hours, OMA1 protease was activated through the addition of carbonyl cyanide m-chlorophenyl hydrazone (CCCP; 10 μM final concentration) for 30 min in the presence of different concentrations of compounds to be tested. After 30 minutes, cells were immediately placed on ice, the medium removed, and cells harvested through addition of 100 μl RIPA buffer supplemented with protease inhibitor cocktail. Samples were separated on 8% tris-glycine gels and transferred onto nitro-cellulose membranes by Wester blotting. Membranes were immunolabeled with anti-OPA1 Antibodies (1:1,000) and with goat-anti-mouse Alkaline Phosphatase conjugated secondary antibodies (1:5,000). OPA1 protein was visualized with NBT/BCIP between 5 and 15 minutes before the reaction was stopped with an excess of distilled water.
# CCCP is a potent mitochondrial oxidative phosphorylation uncoupler that activates OMA1 and creates conditions that allow OPA1 cleavage to occur.
# [2] = test system: OMA1; experiment: OPA1-Western blot of Hek293T cells incubated with tipranavir, OMA1 activated with CCCP or sorafenib; assay type: cell-based, human
# Experimental: FIG. 28. […] OMA1 was activated with 3 μM CCCP for 30 minutes.
# FIG. 29. Tipranavir can activate OMA1 at concentrations above 20 μM. […] OMA1 was then activated with 4 μM CCCP for 30 minutes in the indicated samples.
# FIG. 30. […] OMA1 was then activated with either 3 μM CCCP or 30 μM sorafenib (SFB) for 30 minutes in the indicated samples.
# Experimentally, OMA1 can be activated in cellular assays by the mitochondrial uncoupler [(3-chlorophenyl)hydrazono]propanedinitrile (CCCP).
# Example 9. Tipranavir can activate OMA1 at concentrations above 20 μM. To further determine tipranavir's effect on OPA1, I incubated Hek293T cells for an hour with low doses of 0 μM, 20 μM and 40 μM tipranavir (FIG. 29).
# Example 10. 100 μM tipranavir can inhibit OPA1 cleavage upon CCCP-treatment and upon sorafenib treatment. […] To investigate whether 100 μM tipranavir can inhibit CCCP-induced OPA1-cleavage or OPA1-cleavage induced by other agents as well, I incubated Hek293T cells for an hour with low doses of 0 μM, 50 μM or 100 μM tipranavir before activating OMA1 with either 3 μM CCCP or 30 μM sorafenib (see FIG. 30).
# [3] = test system: OMA1; experiment: OMA1 agonist test: CCCP threshold of OMA1 activation/OPA1 cleavage in HEK293T cells; assay type: cell-based, human
# [4] = test system: OMA1; details: 1% Isoflurane, 90 minutes twice daily, cited from earlier work
# [5] = test system: OMA1; experiment: OMA1 gene expression micro-arrays in rat brain; assay type: in vivo; details: 10 exposures
# Experimental: Rats were exposed to 1% Isoflurane for 90 minutes twice daily for a total of 5 or 10 exposures, after which animals were sacrificed and brain samples analyzed by gene expression micro-arrays (Pan et al. 2006).
# [6] = test system: OMA1; experiment: OMA1 gene expression microarray in RS4.11 MLL leukemia cells; assay type: cell-based, human; details: RS4.11 cells, 10 μM SB216763, 20 hours
# Experimental: Human MLL leukemia RS4.11 cells were cultured without or with 10 μM SB216763 for 20 hours (Wang et al. 2010). […] SB216763 is a kinase inhibitor and the finding that SB216763 can increase OMA1 levels was unexpected and is non-obvious to a person skilled in the arts. In context of the present invention SB216763 thus represents an agonist of OMA1 and/or an oligomeric complex comprising OMA1 as defined above. Accordingly, SB216763 represents a medical intervention in particular for the treatment, prevention and/or amelioration of a disorder or disease correlated with mitochondrial stress or dysfunction, a mitochondrial disorder or disease, or a disorder or disease characterized by OPA1 alterations.
# Referring to FIG. 23, the GSK-3 inhibitor SB216763 (CAS #280744-09-4) represents an agonist of OMA1. […] RS4.11 cells were cultured for 20 hours without or with 10 μM SB216763, after which mRNA was isolated and analyzed by gene expression microarrays. Controls expressed OMA1 at 8.10 (±0.01 S.D.) and SB216763 treated cells expressed OMA1 at 8.7 (±0.18 S.D.).
# [7] = test system: OMA1; details: RS4.11 cells, 10 μM SB216763, 20 hours; cited from earlier work
# [8] = test system: OMA1; experiment: OMA1 gene expression microarray in KMH2 cells; assay type: cell-based, human; details: 20 mM glucosamine, 24 hours
# Experimental: Human malignant lymphocytes (KMH2 cells) were cultured without or with 20 mM glucosamine (Carvalho et al. 2014). After 24 hours mRNA was isolated and analyzed by gene expression microarrays. Controls expressed OMA1 at 7.31 (±0.08 S.D.) and glucosamine treated cells expressed OMA1 at 6.69 (±0.06 S.D.). Glucosamine is a dietary supplement and its effects on mitochondria are known to a person skilled in the arts (Carvalho et al. 2014; Bond and Hanover 2015; Tan et al. 2017). […] In context of the present invention glucosamine thus represents an antagonist of OMA1 and/or an oligomeric complex comprising OMA1 as defined above. Accordingly, glucosamine represents a medical intervention in particular for the treatment, prevention and/or amelioration of a disorder or disease correlated with mitochondrial stress or dysfunction, a mitochondrial disorder or disease, or a disorder or disease characterized by OPA1 alterations.
# Referring to FIG. 21, the dietary supplement glucosamine (CAS #3416-24-8) represents an antagonist of OMA1. […] KMH2 cells were cultured for 24 hours without or with 20 mM glucosamine, after which mRNA was isolated and analyzed by gene expression microarrays. Controls expressed OMA1 at 7.31 (±0.08 S.D.) and glucosamine treated cells expressed OMA1 at 6.69 (±0.06 S.D.).
# [9] = test system: OMA1; details: KMH2 cells, 20 mM glucosamine, 24 hours; cited from earlier work
# [10] = test system: OPA1; details: cells cultured with the compound; cited from earlier work
structure (smiles),measurement,setting,value
CC(C)ON(CC(=O)NO)S(=O)(=O)c1ccc(-c2ccccc2)cc1 [ARP100],proteolytic cleavage of large OPA1 isoforms upon CCCP,[1]; 70 μM,all OPA1 isoforms including the large OPA1-L1 and OPA1-L2 isoforms were readily detectable; also recorded: The large OPA1-L1 and OPA1-L2 isoforms were still readily detectable
"N#CC(C#N)=NNc1cccc(Cl)c1 [CCCP, carbonyl cyanide m-chlorophenyl hydrazone]",L-OPA1 hydrolysis by CCCP alone,"[2]; 3 μM CCCP, 30 minutes",all L-OPA1 isoforms are hydrolyzed upon CCCP treatment
same,OMA1 activation / OPA1 cleavage by CCCP alone,"[1]; 10 μM CCCP, 30 minutes","resulted in cleavage of both large OPA1-L1 and OPA1-L2 isoforms; also recorded: could activate OMA1, which resulted in the cleavage of the OPA1-L1 and OPA1-L2 isoforms"
same,OPA1 processing by CCCP alone,"[3]; 0 μM, 3 μM and 5 μM CCCP, untreated (vehicle-only) cells",had no effect on OPA1 processing in untreated cells
same,OPA1 cleavage / OMA1 activation by CCCP alone,"[3]; 7 μM CCCP, untreated (vehicle-only) cells",OPA1 was cleaved only at the highest concentration of 7 μM CCCP; also recorded: OMA1 was activated at the highest concentration of 7 μM CCCP
FC(F)OC(Cl)C(F)(F)F (stereo not shown) [Isoflurane],OMA1 expression level in rat brain,[4]; 5 exposures,19.1 (±3.4 S.D.)
same,OMA1 expression level in rat brain,[4]; 10 exposures,29.3 (±6.3 S.D.)
same,increase of OMA1 gene expression in rat brain,[5],180% and 280%
Cn1cc(C2=C(c3ccc(Cl)cc3Cl)C(=O)NC2=O)c2ccccc21 [SB216763],increase of OMA1 gene expression levels,[6],7.6%
same,OMA1 expression level,[7],8.7 (±0.18 S.D.)
O=S(=O)(CC1CS1)c1ccc(Oc2ccccc2)cc1 (stereo not shown) [SB-3CT],OPA1 cleavage without CCCP,"[3]; 100 μM SB-3CT, 0 μM CCCP",did not show OPA1 alterations; also recorded: did not induce OPA1 cleavage without CCCP
same,OPA1 cleavage / OMA1 activation at low CCCP,"[3]; 100 μM SB-3CT, 3 μM and 5 μM CCCP for 20 minutes",caused OPA1 cleavage to occur already at 3 μM and 5 μM CCCP; also recorded: OMA1 was already activated at lower concentrations of 3 μM and 5 μM CCCP
O=C(O)CNC(=O)C(CS)Cc1ccccc1 (stereo not shown) [Thiorphan],proteolytic cleavage of large OPA1 isoforms upon CCCP,[1]; 100 μM,all OPA1 isoforms including the two large OPA1-L1 and OPA1-L2 isoforms were readily detectable; also recorded: The large OPA1-L1 and OPA1-L2 isoforms were still readily detectable
N[C@H]1C(O)O[C@H](CO)[C@@H](O)[C@@H]1O (stereo partly shown) [glucosamine],decrease of OMA1 gene expression levels,[8],8.5%
same,OMA1 expression level,[9],6.69 (±0.06 S.D.)
c1cnc2c(c1)ccc1cccnc12 [phenanthroline],proteolytic cleavage of large OPA1 isoforms upon CCCP,[1]; 500 μM,The large OPA1-L1 and OPA1-L2 isoforms were still readily detectable; also recorded: inhibited proteolytic cleavage of OPA1 by OMA1
same,OPA1 levels and OPA1L/OPA1S isoforms,[10],an increase in the OPA1L isoform
CNC(=O)c1cc(Oc2ccc(NC(=O)Nc3ccc(Cl)c(C(F)(F)F)c3)cc2)ccn1 [sorafenib],OMA1 activation / OPA1 cleavage by sorafenib alone,"[2]; 30 μM sorafenib, 30 minutes",activate OMA1 and lead to OPA1 cleavage similar to CCCP
CCC[C@@]1(CCc2ccccc2)CC(O)=C([C@H](CC)c2cccc(NS(=O)(=O)c3ccc(C(F)(F)F)cn3)c2)C(=O)O1 [tipranavir],concentration at which tipranavir can activate OMA1,"[2]; Hek293T cells, 1 hour",above 20 μM
